# Reference: US20240101548A1, “HYDROXAMATE COMPOUND, PREPARATION METHOD THEREFOR AND APPLICATION THEREOF” (SHENZHEN CHIPSCREEN BIOSCIENCES CO., LTD., priority 2020, published 2024)
# What was measured:
# [1] = test system: IL-2-induced JAK1/JAK3 signal pathway; test: IL-2-induced proliferation of KHYG-1 cells (JAK1/JAK3 signal); format: cell-based, human; conditions: Homo sapiens; KHYG-1 cell proliferation, IL-2 10 ng/mL, 72 hours; read-out: Inhibition activity IC50 on IL-2-induced JAK1/JAK3 signal pathway
# In short: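 KHYG-1 NK lymphoma cells were cultured with IL-2 and test compound at various doses for 72 h at 37 °C and 5% CO2, and proliferation was read with alamarBlue fluorescence. Inhibition was normalized to wells without compound or cytokine (0%) and IL-2 wells without compound (100%), and C50 was derived from the dose-inhibition data.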
# [2] = test system: EPO-induced JAK2 signal pathway; test: EPO-induced proliferation of UT-7 cells (JAK2 signal); format: cell-based, human; conditions: Homo sapiens, UT7; UT-7 cell proliferation, EPO 10 ng/mL, 72 hours; read-out: Inhibition activity IC50 on EPO-induced JAK2 signal pathway
# In short: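 UT-7 cells (15000/well) stimulated with 10 ng/mL human recombinant EPO plus compound at final 0, 100, 1000 or 10000 nM, 72 h at 37° C., 5% CO2. Proliferation by alamarBlue fluorescence (Ex530/Em590); inhibition normalised to no-cytokine/no-compound (0) and EPO-only (100) wells, […] derived from dose-inhibition.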
# TYK2 JH2 domain = TYK2 JH2 domain (Homo sapiens (Human), UniProt P29597); test: TYK2 JH2 domain FRET tracer assay; format: binding; conditions: FRET 665/615 nm; read-out: Inhibition activity IC50 on TYK2 JH2 domain
# Sequence of TYK2 JH2 domain (P29597 589-875): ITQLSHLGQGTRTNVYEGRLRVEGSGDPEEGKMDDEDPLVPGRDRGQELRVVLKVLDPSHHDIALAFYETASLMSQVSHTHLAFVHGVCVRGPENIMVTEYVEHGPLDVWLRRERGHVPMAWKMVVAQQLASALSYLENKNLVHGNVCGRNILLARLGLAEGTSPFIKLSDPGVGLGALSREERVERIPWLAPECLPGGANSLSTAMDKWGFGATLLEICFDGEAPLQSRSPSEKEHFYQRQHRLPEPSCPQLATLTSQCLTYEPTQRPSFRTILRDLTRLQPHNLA
# Method: Compound of the present invention formulated into different concentrations (series 3 times dilutions, started from 60 μM, 11 concentrations in total) was added to 384-well plate, followed by 5 μL of enzyme (i.e., TYK2 JH2 domain), Tb antibody (Cisbio) and tracer. The mixture was incubated at 25° C. for 60 min and left at 4° C. overnight.
# [3] = test system: INF-α-induced pSTAT5 in human PBMC; test: INF-α-induced pSTAT5 in human PBMC (FACS, CD3 positive cells); format: cell-based; conditions: Homo sapiens, PBMC, IFN-α 30 ng/ml, read-out: Inhibition activity IC50 on INF-α-induced pSTAT5 in human PBMC
# Method: hPBMC (available from Shanghai AoNeng Biotechnology Co., Ltd.) was inoculated in 96-well plate, added with compound of the present invention (at concentrations of 40 nM and 200 nM), incubated for 60 min (compound in concentrations of 2 nM, 10 nM respectively during the incubation); added with 30 ng/ml of stimulating factor IFN-α (BioLegend) together with anti-CD3 antibody (Biolegend) and then continued to be incubated for 30 min. After the incubation, each well was added with 1 mL of fixing solution (BD Biosciences), the obtained mixture was incubated for 10 min followed by centrifugation, added with 400 μL/well of Perm III (BD Biosciences), followed by further incubation at 4° C. for 30 min. The obtained mixture was added with mouse anti-human pSTAT5 antibody (Alexa Fluor® 647 Conjugate), followed by incubation at room temperature for 40 min. Fluorescence intensity of pSTAT5 in CD3 positive cells was detected by FACS.
# Inhibition rate at individual compound concentration was calculated with the following formula:
# Inhibition rate=(MFI value(IFN-α-stimulated control)−MI value(2/10 nM compound treated group)/MFI value(IFN-α-stimulated control)[…]
# wherein: MFI value meant fluorescence intensity value; IFN-α-stimulated control meant control group which was operated similarly to the experimental groups but no compound of the present invention was added.
# [4] = In-vivo pharmacokinetic test in mice; conditions: mouse, po; BALB/c female mice, gavage 10 mg/kg, plasma
# Method: LC-MS/MS method is used to determine the drug concentration in the plasma of mice at different times after intragastric administration of the compound of the example. Relevant pharmacokinetic parameters are calculated to study the pharmacokinetic behavior of the compound of the present invention in mice, thereby evaluating the pharmacokinetic characteristics thereof.
# Test animal was healthy adult BALB/c female mouse (provided by Chengdu Yaokang Biotechnology Co., Ltd.);
# Compound administration and sample collection: compound was administered to BALB/c female mice by gavage (10 mg/kg). At 0.25, 0.5, 1, 2, 4, 6, 8, and 24 hours after administration, 60 μL of whole blood of the mouse fundus venous plexus were collected and centrifuged at 4000 rpm for 10 min to provide plasma.
# Sample analysis: 10 μL of mouse plasma samples were respectively added with 290 μL of acetonitrile solution containing internal standard to precipitate proteins. After swirling for 10 min and centrifuging at 4000 rpm for 10 min, 200 μL of supernatant was added to 96-well plate, and analyzed by LC-MS/MS at an injection volume of 1 μL.
SMILES,IC50 [1] [nM],IC50 [2] [nM],IC50 (TYK2 JH2 domain) [nM],IC50 [3] [nM],AUC [4] [µM·h],Cmax [4] [µM]
"CCONC(=O)c1cnc(Nc2cc(C)nc(C)n2)cc1Nc1ccc(C(F)(F)F)cc1N(C)S(C)(=O)=O [Example 202, 6-((2,6-dimethylpyrimidin-4-yl)amino)-N-ethoxy-4-((2-(N-methylmethanesulfonamido)-4-(trifluoromethyl)phenyl)amino)nicotinamide]",> 10000,> 10000,0.06,< 2,–,–
CCONC(=O)c1cnc(Nc2cc(C)nc(C)n2)cc1Nc1cccc(-c2ncccn2)c1OC [Example 212],> 10000,> 10000,0.05,< 2,16.3,15
"CCONC(=O)c1cnc(Nc2cc(C)nc(C)n2)cc1Nc1cc(F)cc(-c2ncccn2)c1OC [Example 215, 6-((2,6-dimethylpyrimidin-4-yl)amino)-N-ethoxy-4-((5-fluoro-2-methoxy-3-(pyrimidin-2-yl)phenyl)amino)nicotinamide]",> 10000,> 10000,0.07,< 2,25.8,13.6
"CCONC(=O)c1cnc(NC(=O)C2CC2)cc1Nc1cccc(-c2ncc(Cl)cn2)c1OC [Example 219, 4-((3-(5-chloropyrimidin-2-yl)-2-methoxyphenyl)amino)-6-(cyclopropylcarboxamido)-N-ethoxy nicotinamide]",> 10000,> 10000,0.13,< 2,16.8,10.3
"CCONC(=O)c1cnc(Nc2cc(C)nc(C)n2)cc1Nc1cccc(-c2ncc(C)cn2)c1OC [Example 238, 6-((2,6-dimethylpyrimidin-4-yl)amino)-N-ethoxy-4-((2-methoxy-3-(5-methylpyrimidin-2-yl)phenyl)amino)nicotinamide]",> 10000,> 10000,–,< 2,39.9,15.1
